Where two headings read alike, the source gives them in different places.
Legend:
μ-opioid receptor [1] = target: T1, μ-opioid receptor (Homo sapiens (Human), UniProt P35372); test: μ-opioid receptor radioligand dose-displacement binding assay ([3H]-diprenorphine); conditions: binding affinity
Experimental: Radioligand dose-displacement binding assays for μ-opioid receptors used 0.3 nM [^3H]-diprenorphine (Perkin Elmer, Shelton, Conn.), with […] membrane protein/well in a final volume of 500 μl binding buffer (10 mM MgCl2, 1 mM EDTA, 5% DMSO, 50 mM HEPES, pH 7.4). Reactions were carried out in the absence or presence of increasing concentrations of unlabeled naloxone. All reactions were conducted in 96-deep well polypropylene plates for 2 hours at room temperature. Binding reactions were terminated by rapid filtration onto 96-well Unifilter GF/C filter plates (Perkin Elmer, Shelton, Conn.), presoaked in 0.5% polyethylenimine using a 96-well tissue harvester (Perkin Elmer, Shelton, Conn.) followed by performing three filtration washes with 500 μl of ice-cold binding buffer. Filter plates were subsequently dried at 50° C. for 2-3 hours. BetaScint scintillation cocktail (Perkin Elmer, Shelton, Conn.) was added (50 μl/well), and plates were counted using a Packard Top-Count for 1 min/well. The data were analyzed using the one-site competition curve fitting functions in GraphPad PRISM™ v. 3.0 or higher (San Diego, Calif.), or an in-house function for one-site competition curve-fitting.
(§1) In TABLE 1, binding affinity of certain Compounds of the Invention to the μ- and κ-opioid receptors was determined as described above.

κ opioid receptor [2] = target: T2, κ opioid receptor (Homo sapiens (Human), UniProt P41145); test: κ-opioid receptor radioligand dose-displacement binding assay ([3H]-U69,593); conditions: binding affinity
Experimental: Membranes from HEK-293 cells, CHO or U-2 OS cells expressing the recombinant human κ opioid receptor (κ) were prepared by lysing cells in ice cold hypotonic buffer (2.5 mM MgCl2, 50 mM HEPES, pH 7.4) (10 mL/10 cm dish) followed by homogenization with a tissue grinder/Teflon pestle. Membranes were collected by centrifugation at 30,000×g for 15 min at 4° C. and pellets were resuspended in hypotonic buffer to a final concentration of 1-3 mg/mL. Protein concentrations were determined using the BioRad protein assay reagent with bovine serum albumen as standard. Aliquots of κ receptor membranes were stored at −80° C.
Radioligand dose displacement assays used 0.4 nM [^3H]-U69,593 (GE Healthcare, Piscataway, N.J.; 40 Ci/mmole) with 15 μg membrane protein (recombinant κ opioid receptor expressed in HEK 293 cells; in-house prep) in a final volume of 200 μl binding buffer (5% DMSO, 50 mM Trizma base, pH 7.4). Non-specific binding was determined in the presence of 10 μM unlabeled naloxone or U69,593. All reactions were performed in 96-well polypropylene plates for 1 hour at a temperature of about 25° C. Binding reactions were terminated by rapid filtration onto 96-well Unifilter GF/C filter plates (Perkin Elmer, Shelton, Conn.) presoaked in 0.5% polyethylenimine (Sigma). Harvesting was performed using a 96-well tissue harvester (Perkin Elmer, Shelton, Conn.) followed by five filtration washes with 200 μl ice-cold binding buffer. Filter plates were subsequently dried at 50° C. for 1-2 hours. Fifty μl/well scintillation cocktail (Perkin Elmer, Shelton, Conn.) was added and plates were counted in a Packard Top-Count for 1 min/well.
as §1

μ-opioid receptor [3] = target: T1, μ-opioid receptor; test: μ-opioid receptor [35S]GTPγS functional assay; format: biochemical; conditions: for EC50: GTPγS functional assay using U-2 OS cells; for Emax: maximal effect relative to DAMGO, U-2 OS cells
Experimental: [^35S]GTPγS functional assays were conducted using freshly thawed p-receptor membranes prepared in-house from a cell line expressing recombinant μ opioid receptor in a HEK-293, CHO or U-2 OS cell background, or purchased from a commercial source (Perkin Elmer, Shelton. Conn.; or DiscovRx, Fremont, Calif.). Assay reactions were prepared by sequentially adding the following reagents to binding buffer (100 mM NaCl, 10 mM MgCl2, 20 mM HEPES, pH 7.4) on ice (final concentrations indicated): membrane protein ([…]), saponin ([…]), GDP ([…]) and [^35S]GTPγS (0.20 nM; Perkin Elmer, Shelton, Conn.). The prepared membrane solution (190 μl/well) was transferred to 96-shallow well polypropylene plates containing 10 μl of 20× concentrated stock solutions of the agonist [D-Ala^2, N-methyl-Phe^4 Gly-ol^5]-enkephalin (DAMGO) prepared in dimethyl sulfoxide (DMSO). Plates were incubated for 30 min at about 25° C. with shaking. Reactions were terminated by rapid filtration onto 96-well Unifilter GF/B filter plates (Perkin Elmer, Shelton, Conn.) using a 96-well tissue harvester (Perkin Elmer, Shelton, Conn.) followed by three filtration washes with 200 μl of ice-cold wash buffer (10 mM NaH2PO4, 10 mM Na2HPO4, pH 7.4). Filter plates were subsequently dried at 50° C. for 2-3 hours. BetaScint scintillation cocktail (Perkin Elmer, Shelton, Conn.) was added (50 μl/well) and plates were counted using a Packard Top-Count for 1 min/well. Data were analyzed using the sigmoidal dose-response curve fitting functions in GraphPad PRISM v. 3.0, or an in-house function for non-linear, sigmoidal dose-response curve-fitting.
μ GTP EC50 is the concentration of a compound providing 50% of the maximal response for the compound at a […] receptor.
μ GTP Emax (%) is the maximal effect elicited by a compound relative to the effect elicited by DAMGO, a standard μ agonist. Generally, the μ GTP Emax (%) value measures the efficacy of a compound to treat or prevent pain or other Conditions.
(§2) In TABLE 2, activity response of certain Compounds of the Invention to the μ- and κ-opioid receptors was determined as described above for functional assays using U-2 OS cells.

κ opioid receptor [4] = target: T2, κ opioid receptor; test: κ-opioid receptor [35S]GTPγS functional assay; format: biochemical; conditions: for EC50: GTPγS functional assay using U-2 OS cells; for Emax: maximal effect relative to U69,593, U-2 OS cells
Experimental: Functional [^35S]GTPγS binding assays were conducted as follows. κ opioid receptor membrane solution was prepared by sequentially adding final concentrations of 0.026 μg/μl κ membrane protein (in-house), 10 μg/mL saponin, 3 μM GDP and 0.20 nM [^35S]GTPγS to binding buffer (100 mM NaCl, 10 mM MgCl2, 20 mM HEPES, pH 7.4) on ice. The prepared membrane solution (190 μl/well) was transferred to 96-shallow well polypropylene plates containing 10 μl of 20× concentrated stock solutions of agonist prepared in DMSO. Plates were incubated for 30 min at a temperature of about 25° C. with shaking. Reactions were terminated by rapid filtration onto 96-well Unifilter GF/B filter plates (Perkin Elmer, Shelton, Conn.) using a 96-well tissue harvester (Packard) and followed by three filtration washes with 200 μl ice-cold binding buffer (10 mM NaH2PO4, 10 mM Na2HPO4, pH 7.4). Filter plates were subsequently dried at 50° C. for 2-3 hours. Fifty μl/well scintillation cocktail (Perkin Elmer, Shelton, Conn.) was added and plates were counted in a Packard Top-Count for 1 min/well.
κ GTP EC50 is the concentration of a compound providing 50% of the maximal response for the compound at a κ receptor.
κ GTP Emax (%) is the maximal effect elicited by a compound relative to the effect elicited by U69,593.
as §2

[5] = read-out: Opioid Receptor Ki (nM) μ

Row | Structure (SMILES) | Ki (μ-opioid receptor [1]; [5]) | Ki (κ opioid receptor [2]) | Ki (μ-opioid receptor [1]; read-out: Opioid Receptor Ki μ) | EC50 (μ-opioid receptor [3]) | Emax (μ-opioid receptor [3]) | EC50 (κ opioid receptor [4]) | Emax (κ opioid receptor [4])
1 | COc1ccc2c(c1)[C@]13CCN(CC4CC4)C[C@]1(CC[C@@]1(C3)NC(=O)NC1=O)C2 [Compound 2, (3S,4aR,9,aR)-11-(cyclopropylmethyl)-6-methoxy-1,2,4,9-tetrahydrospiro[4a,9a-(ethanoiminomethano)fluorene-3,4′-imidazolidine]-2′,5′-dione] | 6250 ± 874 nM | 4760 ± 1110 nM |  |  |  |  | 
2 | COc1ccc2c(c1)[C@]13CCN(CC4CC4)C[C@]1(CC[C@]1(C3)NC(=O)NC1=O)C2 [Compound 3] |  | 8410 ± 650 nM | > 20000 nM |  |  |  | 
3 | COC(=O)c1cc2c([nH]c1=O)C[C@@]13CCN(CC4CC4)C[C@@]1(Cc1ccc(OC)cc13)C2 [Compound 5, (5aS,10bR)-methyl 14-(cyclopropylmethyl)-9-methoxy-2-oxo-2,5,6,11-tetrahydro-1H-10b,5a-(ethanoiminomethano)indeno[2,1-g]quinoline-3-carboxylate] | 9550 ± 1870 nM | 3600 ± 882 nM |  |  |  |  | 
4 | COc1ccc2c(c1)[C@]13CCN(CC4CC4)C[C@@]1(C2)Cc1cc(C(N)=O)c(=O)[nH]c1C3 [Compound 6, (5aS,10bR)-14-(cyclopropylmethyl)-9-methoxy-2-oxo-2,5,6,11-tetrahydro-1H-10b,5a-(ethanoiminomethano)indeno[2,1-g]quinoline-3-carboxamide] | 15600 nM | 4280 ± 1090 nM |  |  |  |  | 
5 | NC(=O)c1cc2c([nH]c1=O)C[C@@]13CCN(CC4CC4)C[C@@]1(Cc1ccc(O)cc13)C2 [Compound 7, (5aS,10bR)-14-(cyclopropylmethyl)-9-hydroxy-2-oxo-2,5,6,11-tetrabydro-1H-10b,5a-(ethanoiminomethano)indeno[2,1-g]quinoline-3-carboxamide] | 770 ± 102 nM | 148 ± 39.8 nM |  | 412 ± 66.4 nM | 19.3 ± 3.18% | 570 ± 85.4 nM | 103 ± 5.21%
6 | O=C1NC(=O)[C@@]2(CC[C@@]34Cc5ccc(O)cc5[C@@]3(CCN(CC3CC3)C4)C2)N1 [Compound 8, (3S,4aR,9aR)-11-(cyclopropylmethyl)-6-hydroxy-1,2,4,9-tetrahydrospiro[4a,9a-(ethanoiminomethano)fluorene-3,4′-imidazolidine]-2′,5′-dione] | 472 ± 93 nM | 72.5 ± 18.3 nM |  | 414 ± 62.8 nM | 86.7 ± 1.67% | 384 ± 36.9 nM | 119 ± 4.41%
7 | O=C1NC(=O)[C@]2(CC[C@@]34Cc5ccc(O)cc5[C@@]3(CCN(CC3CC3)C4)C2)N1 [Compound 9, (3R,4aR,9aR)-11-(cyclopropylmethyl)-6-hydroxy-1,2,4,9-tetrahydrospiro[4a,9a-(ethanoiminomethano)fluorene-3,4′-imidazolidine]-2′,5′-dione] | 676 ± 74.1 nM | 148 ± 25.2 nM |  | 309 ± 36.3 nM | 94 ± 3.06% | 318.8 ± 1.38 nM | 109 ± 7.09%

Source: US9340542B2, “Propellane-based compounds and the use thereof” (Purdue Pharma L.P., priority 2013, dated 2016)
